In ChEMBL document CHEMBL3885861, “Open TG-GATES”:

Species: Rattus norvegicus
Experiment: Open TG-GATES - Regimen: Single
Assay type: toxicity, organism-based, Sprague-Dawley
Parameters: regimen Single, gender Male, age 6 weeks
Conditions: in vivo, po, route gavage; for Bas / Eos / Fbg / Hb / Ht / Lym / MCHC / MCV / Mono / Neu / Plat / RBC / Ret / WBC: tissue Blood; for KIDNEY_TOTAL: tissue Kidney; for LIVER: tissue Liver; for ALT / AST / BUN / CRE / Ca / Cl / DBIL / GLC / IP / K / LDH / Na / PL / RALB / TBIL / TC / TP / gamma-GTP: tissue Plasma
[1] = 5 mg/kg, 3 h, dose level Middle
[2] = 5 mg/kg, 6 h, dose level Middle
[3] = 5 mg/kg, 9 h, dose level Middle
[4] = 5 mg/kg, 24 h, dose level Middle
[5] = 50 mg/kg, 24 h, dose level High

## C[C@@H]1C[C@H]2[C@@H]3CCC4=CC(=O)C=C[C@]4(C)[C@@]3(F)[C@@H](O)C[C@]2(C)[C@@]1(O)C(=O)CO [DEXAMETHASONE]
[1]
  TERMINAL_BW: 210 g
  Bas: 0%
  Eos: 0.6%
  Fbg: 235.2 mg/dL
  Hb: 13.2 g/dL
  Ht: 40.3%
  Lym: 71.4%
  MCHC: 32.8%
  MCV: 65 fL
  Mono: 2.4%
  Neu: 25.6%
  Plat: 121.2 x10_4/uL
  RBC: 620.6 x10_4/ul
  Ret: 9.6%
  WBC: 46.5 x10_2/uL
  KIDNEY_TOTAL: 0.6 g
  LIVER: 10.6 g
  ALT: 41 IU/L
  AST: 77.8 IU/L
  BUN: 15 mg/dL
  CRE: 0.4 mg/dL
  Ca: 11.4 mg/dL
  Cl: 101.8 meq/L
  DBIL: 0.014 mg/dL
  GLC: 193.4 mg/dL
  IP: 11.9 mg/dL
  K: 4.1 meq/L
  LDH: 103.8 IU/L
  Na: 141.2 meq/L
  PL: 157.4 mg/dL
  RALB: 4.2 g/dL
  TBIL: 0.046 mg/dL
  TC: 91.2 mg/dL
  TP: 6 g/dL
  gamma-GTP: 0.4 IU/L
[2]
  TERMINAL_BW: 205.5 g
  Bas: 0%
  Eos: 0.6%
  Fbg: 243.6 mg/dL
  Hb: 12.9 g/dL
  Ht: 39.2%
  Lym: 59.4%
  MCHC: 32.8%
  MCV: 64.4 fL
  Mono: 3.6%
  Neu: 36.6%
  Plat: 129.5 x10_4/uL
  RBC: 609.4 x10_4/ul
  Ret: 6.7%
  WBC: 27.3 x10_2/uL
  KIDNEY_TOTAL: 0.6 g
  LIVER: 11.2 g
  ALT: 39.8 IU/L
  AST: 82.6 IU/L
  BUN: 17.2 mg/dL
  CRE: 0.4 mg/dL
  Ca: 11.6 mg/dL
  Cl: 103.2 meq/L
  DBIL: 0.01 mg/dL
  GLC: 223.8 mg/dL
  IP: 7.7 mg/dL
  K: 4.1 meq/L
  LDH: 84.4 IU/L
  Na: 138.8 meq/L
  PL: 153.6 mg/dL
  RALB: 4.5 g/dL
  TBIL: 0.036 mg/dL
  TC: 101.4 mg/dL
  TP: 6.3 g/dL
  gamma-GTP: 0 IU/L
[3]
  TERMINAL_BW: 199.5 g
  Bas: 0%
  Eos: 0.2%
  Fbg: 246 mg/dL
  Hb: 13.6 g/dL
  Ht: 41.5%
  Lym: 37%
  MCHC: 32.7%
  MCV: 64.4 fL
  Mono: 1.4%
  Neu: 61.2%
  Plat: 122.1 x10_4/uL
  RBC: 645.2 x10_4/ul
  Ret: 6%
  WBC: 18.2 x10_2/uL
  KIDNEY_TOTAL: 0.4 g
  LIVER: 10.8 g
  ALT: 39.4 IU/L
  AST: 76.8 IU/L
  BUN: 19.4 mg/dL
  CRE: 0.4 mg/dL
  Ca: 10.9 mg/dL
  Cl: 102 meq/L
  DBIL: 0.008 mg/dL
  GLC: 226 mg/dL
  IP: 7.2 mg/dL
  K: 3.9 meq/L
  LDH: 104.4 IU/L
  Na: 138.6 meq/L
  PL: 179.4 mg/dL
  RALB: 4.6 g/dL
  TBIL: 0.032 mg/dL
  TC: 118 mg/dL
  TP: 6.7 g/dL
  gamma-GTP: 0.8 IU/L
[4]
  TERMINAL_BW: 208.2 g
  Bas: 0%
  Eos: 1%
  Fbg: 232.4 mg/dL
  Hb: 13.4 g/dL
  Ht: 40.4%
  Lym: 46.8%
  MCHC: 33.1%
  MCV: 63.3 fL
  Mono: 9.2%
  Neu: 43.2%
  Plat: 136.7 x10_4/uL
  RBC: 638.4 x10_4/ul
  Ret: 5.4%
  WBC: 47.5 x10_2/uL
  KIDNEY_TOTAL: 0.4 g
  LIVER: 13.2 g
  ALT: 37.2 IU/L
  AST: 83.4 IU/L
  BUN: 17.6 mg/dL
  CRE: 0.4 mg/dL
  Ca: 11.4 mg/dL
  Cl: 99.4 meq/L
  DBIL: 0.022 mg/dL
  GLC: 205 mg/dL
  IP: 6.8 mg/dL
  K: 5.1 meq/L
  LDH: 96 IU/L
  Na: 137.8 meq/L
  PL: 249.2 mg/dL
  RALB: 4.8 g/dL
  TBIL: 0.044 mg/dL
  TC: 119.2 mg/dL
  TP: 6.8 g/dL
  gamma-GTP: 0 IU/L
50 mg/kg, 3 h, dose level High
  TERMINAL_BW: 214.6 g
  Bas: 0%
  Eos: 0.8%
  Fbg: 244.4 mg/dL
  Hb: 13.1 g/dL
  Ht: 40.1%
  Lym: 58%
  MCHC: 32.5%
  MCV: 63.1 fL
  Mono: 2.8%
  Neu: 38.8%
  Plat: 125.2 x10_4/uL
  RBC: 635.6 x10_4/ul
  Ret: 7.4%
  WBC: 35.1 x10_2/uL
  KIDNEY_TOTAL: 0.6 g
  LIVER: 10.7 g
  ALT: 40.4 IU/L
  AST: 75.2 IU/L
  BUN: 15.6 mg/dL
  CRE: 0.4 mg/dL
  Ca: 11.3 mg/dL
  Cl: 103.2 meq/L
  DBIL: 0.012 mg/dL
  GLC: 198.8 mg/dL
  IP: 11.5 mg/dL
  K: 3.9 meq/L
  LDH: 85.4 IU/L
  Na: 142 meq/L
  PL: 152.8 mg/dL
  RALB: 4.3 g/dL
  TBIL: 0.04 mg/dL
  TC: 91 mg/dL
  TP: 6.1 g/dL
  gamma-GTP: 1 IU/L
50 mg/kg, 6 h, dose level High
  TERMINAL_BW: 208.4 g
  Bas: 0%
  Eos: 0%
  Fbg: 244.4 mg/dL
  Hb: 13.3 g/dL
  Ht: 40.4%
  Lym: 61.8%
  MCHC: 32.9%
  MCV: 63.8 fL
  Mono: 3.4%
  Neu: 34.4%
  Plat: 119.3 x10_4/uL
  RBC: 634 x10_4/ul
  Ret: 7.1%
  WBC: 26.8 x10_2/uL
  KIDNEY_TOTAL: 0.5 g
  LIVER: 10.5 g
  ALT: 40.8 IU/L
  AST: 83 IU/L
  BUN: 16.2 mg/dL
  CRE: 0.4 mg/dL
  Ca: 11.4 mg/dL
  Cl: 104.6 meq/L
  DBIL: 0.01 mg/dL
  GLC: 215.2 mg/dL
  IP: 8.1 mg/dL
  K: 4.1 meq/L
  LDH: 80.6 IU/L
  Na: 140.2 meq/L
  PL: 157.6 mg/dL
  RALB: 4.6 g/dL
  TBIL: 0.036 mg/dL
  TC: 106.4 mg/dL
  TP: 6.5 g/dL
  gamma-GTP: 0 IU/L
50 mg/kg, 9 h, dose level High
  TERMINAL_BW: 200.5 g
  Bas: 0%
  Eos: 0%
  Fbg: 244.6 mg/dL
  Hb: 13.5 g/dL
  Ht: 41%
  Lym: 42.8%
  MCHC: 32.9%
  MCV: 64.5 fL
  Mono: 2%
  Neu: 55.2%
  Plat: 121.9 x10_4/uL
  RBC: 636.2 x10_4/ul
  Ret: 5.4%
  WBC: 15.4 x10_2/uL
  KIDNEY_TOTAL: 0.5 g
  LIVER: 10.8 g
  ALT: 39 IU/L
  AST: 78.2 IU/L
  BUN: 18.2 mg/dL
  CRE: 0.4 mg/dL
  Ca: 10.6 mg/dL
  Cl: 103.2 meq/L
  DBIL: 0.01 mg/dL
  GLC: 238.8 mg/dL
  IP: 6.6 mg/dL
  K: 4.2 meq/L
  LDH: 83.4 IU/L
  Na: 138 meq/L
  PL: 177.6 mg/dL
  RALB: 4.6 g/dL
  TBIL: 0.032 mg/dL
  TC: 105.6 mg/dL
  TP: 6.5 g/dL
  gamma-GTP: 0.8 IU/L
[5]
  TERMINAL_BW: 218.5 g
  Bas: 0%
  Eos: 1.2%
  Fbg: 231 mg/dL
  Hb: 13.8 g/dL
  Ht: 42.2%
  Lym: 13.8%
  MCHC: 32.8%
  MCV: 63.1 fL
  Mono: 7.2%
  Neu: 78.4%
  Plat: 129.6 x10_4/uL
  RBC: 667.6 x10_4/ul
  Ret: 4.6%
  WBC: 26.2 x10_2/uL
  KIDNEY_TOTAL: 0.3 g
  LIVER: 14.3 g
  ALT: 52.8 IU/L
  AST: 102.2 IU/L
  BUN: 19.2 mg/dL
  CRE: 0.5 mg/dL
  Ca: 11.2 mg/dL
  Cl: 99.8 meq/L
  DBIL: 0.018 mg/dL
  GLC: 273.2 mg/dL
  IP: 6.7 mg/dL
  K: 4.6 meq/L
  Na: 138.8 meq/L
  PL: 260.8 mg/dL
  RALB: 4.6 g/dL
  TBIL: 0.042 mg/dL
  TC: 120.4 mg/dL
  TP: 6.5 g/dL
  gamma-GTP: 0.4 IU/L
